What was measured:
THP-1 cells = test: Cytokine expression (TNF-α, IL-8, MCP-1; ELISA) in TPA-differentiated THP-1 macrophage-like cells; type: cell-based, human; settings: for activation of the MyD88 signaling pathway compared to Re-LPS/LPS: THP-1; for potency in induction of expression of IL-8 compared to Re-LPS/LPS / potency in induction of expression of TNF-α compared to Re-LPS/LPS: dose-dependent
Protocol: Lipid A mimetics 1–3 were examined for the ability to initiate the expression of tumor necrosis factor-α (TNF-α), interleukin-8 (IL-8), and monocyte chemotactic protein-1 (MCP-1) in the human monocytic macrophage-like cell line THP-1, which expresses MD-2, CD14, and a variety of cell surface receptors, including TLR4.
THP-1 cells were grown in RPMI-1640 cell-culture medium (Life Technologies) that was supplemented with 2 mM L-glutamine, 100 U/mL penicillin, 100 μg/mL streptomycin, and 10% FCS. Cells were seeded in a 96-well plate at 10^5 cells/well in 150 μL of complete medium and stimulated by 200 nM TPA for 24 h to induce the differentiation into macrophage-like cells.[59] […] Cells were stimulated with α,α-GM-LAMs 1–3 at the indicated concentration and with E. coliRe-LPS (or E. coli O111:B4 LPS), which were added as solutions in 10 μL of complete medium. The total volume of the well after stimulation reached 220 μL. The cells were incubated for 18 h, and the supernatants were analyzed for TNF-α, IL-8, and MCP-1 by ELISA (BD Biosciences).
Supplementary SI-Figure 2
E. coli wild type O111:B4 LPS is a large heterogeneous molecule with molecular weight (MW) comprising 10-15 kDa. Since we were particularly interested in the molecular recognition mechanisms implicated in the binding of LPS by the MD-2∙TLR4 complex wherein the Lipid A/Re-LPS (MW 1.8/2.2 kDa, respectively) portion of LPS is mostly involved, we have analyzed the dose-dependent THP-1 cells activation by synthetic α,α-GM-LAM 1-3 (at the concentrations 0.1 – 300 ng/ml) compared to E. coli Re-LPS which is more appropriate in this instance. Since the divergences in the expression of different cytokines by E. coli LPS vs. Re-LPS are only scarcely reported in the literature, we have performed dose-dependent activation experiments comparing expression of TNF-α, IL-8 and MCP-1 by E. coli O111:B4 LPS and E. coli Re-LPS at the concentrations 0.4 – 100 nM. Wild-type LPS (MW 10 […]
range (0.4 – 10 nM), whereas at the concentrations above 10 nM (50 nM for MCP-1) the levels of cytokines […]
This might be explained by a different aggregation state of Re-LPS and wild type LPS, and, therefore, the alterations in the transfer of a single LPS molecule to TLR4∙MD-2 complex by LBP and CD-14. Higher MW (> 10 kDa) of the LPS molecule applied for the calculations of the concentrations in [nM] would result in the shift of the activation profile induced by wild-type LPS. Calculation of EC50 values were hardly possible, since the maximum TLR4 saturation levels were not achieved at the concentrations tested.
SI-Figure 2. Dose-dependent expression of pro-inflammatory cytokines TNF-α, IL-8 and MCP-1 in human macrophage cell line THP-1 by E. coli Re-LPS compared to E. coli wild-type O111:B4 LPS. (A) Comparative expression of TNF-a; (B) comparative expression of IL-8; (C) comparative expression of MCP-1 […]
(1 picture or pasted object on this page, not shown here)
Supplementary SI-Figure 3
Dose-dependent responses (THP-1 cells: α,α-GM-LAM 1-3 and Re-LPS) at the concentration range 0.4 – 100 ng/ml which are presented in the Figure 5, were extended to the higher concentration range (up to 300 ng/ml).
SI-Figure 3. Dose-dependent expression of cytokines induced by α,α-GM-LAM 1-3 in macrophage cell line THP-1 compared to E. coli Re-LPS at the concentration range 0.4 – 300 ng/ml. (A) Production of TNF-α; (B) Induction of […]
Supplementary SI-Figure 4
Lipid A mimetic 1 was examined for the activation of NF-κB (Nuclear factor kappaB) and IRF3
(Interferon regulatory factor 3). IRF3 activation […]
noticeable after 1h stimulation, though was
LPS. At 1h stimulation the α,α-GM-LAM 1 was […]
whereas at 3h simulation compound 1 (at a […]
stronger phosphorylation of IκBa (P-IκBa levels) as well as the higher levels of IκBa (reflecting the NF-κB dependent re-synthesis of IκB following its
Thus, IRF3 activation and NF-κB activation […]
degradation and its NF-κB dependent resynthesis) […]
compared to LPS after 3h stimulation. […]

human dendritic cells = test: Cytokine production in human monocyte-derived dendritic cells (Luminex); type: cell-based; settings: hDCs, 24 h
Protocol: Activated DCs were examined for the production of pro-inflammatory cytokines TNF-α, IL-6, and IL-12, which contribute to the modulation of the T cell response and innate effector functions.[57] The release of TNF-α and IL-6 reached nearly maximum levels (attained with 10 ng/mL LPS) at the α,α-GM-LAM 1 concentration of 1 ng/mL (Figure 7A).
Human peripheral blood monocytes were cultured for 6 days in GM-CSF and IL-4 to receive immature monocyte-derived DCs and were then stimulated with the indicated concentrations of 1 and 3 using 10 ng/mL LPS as positive control (solutions in PRMI containing 10% FCS and 0.005–0.01% DMSO). The amounts of IL-6, IL-12, IL-10, and TNF-α in the supernatants of the cells were analyzed after 24 h by Luminex. Results are representative of three independent experiments for 1 and of two experiments for 3. Mean values of duplicate examinations ± SD are presented.

[1] = Storage stability in aqueous solution (MALDI-TOF analysis); type: physicochemical; settings: 4 °C, several months, free acids at the phosphates
Protocol: Next, the free 6-OH group in the hexaacylated disaccharides 57 and 58 was phosphorylated by reaction with dibenzyl-(N,N′-diisopropylamino)phosphoramidite in the presence of a mild acid catalyst, 1H-tetrazole, and subsequent oxidation with mCPBA at −78 °C to furnish the bisphosphorylated hexaacylated products 61 and 62 in 91% and 89% yield, respectively. Final debenzylation by hydrogenation of 57, 61, and 62 on Pd-black followed by purification with gel permeation chromatography on Sephadex SX1 in toluene–methanol (2:1) afforded target bisphosphorylated Lipid A mimetics 1 and 2 and a monophosphorylated counterpart 3.

| Structure (SMILES) | induction of the expression of cytokines (THP-1 cells; THP-1, TNF-α, IL-8, MCP-1) | release of TNF-α, IL-6, and IL-10 compared to 1 (human dendritic cells) | activation of the MyD88 signaling pathway compared to Re-LPS/LPS (THP-1 cells) | release of MCP-1 compared to Re-LPS and compound 1 (THP-1 cells; THP-1, 18 h) | potency in induction of expression of IL-8 compared to Re-LPS/LPS (THP-1 cells; THP-1, 18 h) | potency in induction of expression of TNF-α compared to Re-LPS/LPS (THP-1 cells; THP-1, 18 h) | stability on storage in aqueous solution [1] | concentration at which release of TNF-α and IL-6 reached nearly maximum levels (attained with 10 ng/mL LPS) (human dendritic cells) | expression of IL-12 (human dendritic cells) |
| --- | --- | --- | --- | --- | --- | --- | --- | --- | --- |
| CCCCCCCCCCCCCC(=O)O[C@H](CCCCCCCCCCC)CC(=O)O[C@@H]1[C@@H](NC(=O)C[C@@H](CCCCCCCCCCC)OC(=O)CCCCCCCCCCC)[C@@H](O[C@H]2O[C@H](CO)[C@@H](OC(=O)C[C@@H](CCCCCCCCCCC)OC(=O)CCCCCCCCCCC)[C@H](O)[C@@H]2OC)O[C@H](CO)[C@H]1OP(=O)(O)O [Compound 3, 4-O-[(R)-3-(Dodecanoyloxy)tetradecanoyl]-2-O-methyl-α-D-mannopyranosyl-(1↔1)-2-deoxy-2-[(R)-3-(dodecanoyloxy)tetradecanoylamino]-4-O-phosphoryl-3-O-[(R)-3-(tetradecanoyloxy)tetradecanoyl]-α-D-glucopyranoside] | dampened induction | less efficient | – | – | – | – | – | – | – |
| CCCCCCCCCCCCCC(=O)O[C@H](CCCCCCCCCCC)CC(=O)O[C@@H]1[C@@H](NC(=O)C[C@@H](CCCCCCCCCCC)OC(=O)CCCCCCCCCCC)[C@@H](O[C@H]2O[C@H](COP(=O)(O)O)[C@@H](OC(=O)C[C@@H](CCCCCCCCCCC)OC(=O)CCCCCCCCC)[C@H](O)[C@@H]2OC)O[C@H](CO)[C@H]1OP(=O)(O)O [Compound 2, 4-O-[(R)-3-(Decanoyloxy)tetradecanoyl]-2-O-methyl-6-O-phosphoryl-α-mannopyranosyl-(1↔1)-2-deoxy-2-[(R)-3-(dodecanoyloxy)tetradecanoylamino]-4-O-phosphoryl-3-O-[(R)-3-(tetradecanoyloxy)tetradecanoyl]-α-D-glucopyranoside] | – | – | more potent activators | clearly more effective | higher potency | higher potency | without any noticeable sign of degradation | – | – |
| CCCCCCCCCCCCCC(=O)O[C@H](CCCCCCCCCCC)CC(=O)O[C@@H]1[C@@H](NC(=O)C[C@@H](CCCCCCCCCCC)OC(=O)CCCCCCCCCCC)[C@@H](O[C@H]2O[C@H](COP(=O)(O)O)[C@@H](OC(=O)C[C@@H](CCCCCCCCCCC)OC(=O)CCCCCCCCCCC)[C@H](O)[C@@H]2OC)O[C@H](CO)[C@H]1OP(=O)(O)O [Compound 1, 4-O-[(R)-3-(Dodecanoyloxy)tetradecanoyl]-2-O-methyl-6-O-phosphoryl-α-D-mannopyranosyl-(1↔1)-2-deoxy-2-[(R)-3-(dodecanoyloxy)tetradecanoylamino]-4-O-phosphoryl-3-O-[(R)-3-(tetradecanoyloxy)tetradecanoyl]-α-D-glucopyranoside] | – | – | more potent activators | – | higher potency | higher potency | without any noticeable sign of degradation | 1 ng/mL | efficiently induced |

— publication PMC4191062, “Development of αGlcN(1↔1)αMan-Based Lipid A Mimetics as a Novel Class of Potent Toll-like Receptor 4 Agonists” (Journal of Medicinal Chemistry, 2014)
